# Assay results as given in PubChem BioAssay AID651782 (The Scripps Research Institute Molecular Screening Center, 2012).
# Calls of active or inactive are those of the source.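 How the source made its calls: active means IC50 of 10 µM or lower; inactive means IC50 above 10 µM.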
# Target: Nuclear receptor coactivator 2 (Homo sapiens) (UniProt Q15596)
# Assay: inhibition of GAL4-SRC2 reporter transcription – cell-based, HEK293, GAL4-SRC2 luciferase, powder samples, selectivity assay for SRC3 inhibitor project, late-stage follow-up (AID 651782)
# Details: luminescence
# Chain of Nuclear receptor coactivator 2 (Homo sapiens) (Q15596 whole entry, looked up, the tested form may be a part): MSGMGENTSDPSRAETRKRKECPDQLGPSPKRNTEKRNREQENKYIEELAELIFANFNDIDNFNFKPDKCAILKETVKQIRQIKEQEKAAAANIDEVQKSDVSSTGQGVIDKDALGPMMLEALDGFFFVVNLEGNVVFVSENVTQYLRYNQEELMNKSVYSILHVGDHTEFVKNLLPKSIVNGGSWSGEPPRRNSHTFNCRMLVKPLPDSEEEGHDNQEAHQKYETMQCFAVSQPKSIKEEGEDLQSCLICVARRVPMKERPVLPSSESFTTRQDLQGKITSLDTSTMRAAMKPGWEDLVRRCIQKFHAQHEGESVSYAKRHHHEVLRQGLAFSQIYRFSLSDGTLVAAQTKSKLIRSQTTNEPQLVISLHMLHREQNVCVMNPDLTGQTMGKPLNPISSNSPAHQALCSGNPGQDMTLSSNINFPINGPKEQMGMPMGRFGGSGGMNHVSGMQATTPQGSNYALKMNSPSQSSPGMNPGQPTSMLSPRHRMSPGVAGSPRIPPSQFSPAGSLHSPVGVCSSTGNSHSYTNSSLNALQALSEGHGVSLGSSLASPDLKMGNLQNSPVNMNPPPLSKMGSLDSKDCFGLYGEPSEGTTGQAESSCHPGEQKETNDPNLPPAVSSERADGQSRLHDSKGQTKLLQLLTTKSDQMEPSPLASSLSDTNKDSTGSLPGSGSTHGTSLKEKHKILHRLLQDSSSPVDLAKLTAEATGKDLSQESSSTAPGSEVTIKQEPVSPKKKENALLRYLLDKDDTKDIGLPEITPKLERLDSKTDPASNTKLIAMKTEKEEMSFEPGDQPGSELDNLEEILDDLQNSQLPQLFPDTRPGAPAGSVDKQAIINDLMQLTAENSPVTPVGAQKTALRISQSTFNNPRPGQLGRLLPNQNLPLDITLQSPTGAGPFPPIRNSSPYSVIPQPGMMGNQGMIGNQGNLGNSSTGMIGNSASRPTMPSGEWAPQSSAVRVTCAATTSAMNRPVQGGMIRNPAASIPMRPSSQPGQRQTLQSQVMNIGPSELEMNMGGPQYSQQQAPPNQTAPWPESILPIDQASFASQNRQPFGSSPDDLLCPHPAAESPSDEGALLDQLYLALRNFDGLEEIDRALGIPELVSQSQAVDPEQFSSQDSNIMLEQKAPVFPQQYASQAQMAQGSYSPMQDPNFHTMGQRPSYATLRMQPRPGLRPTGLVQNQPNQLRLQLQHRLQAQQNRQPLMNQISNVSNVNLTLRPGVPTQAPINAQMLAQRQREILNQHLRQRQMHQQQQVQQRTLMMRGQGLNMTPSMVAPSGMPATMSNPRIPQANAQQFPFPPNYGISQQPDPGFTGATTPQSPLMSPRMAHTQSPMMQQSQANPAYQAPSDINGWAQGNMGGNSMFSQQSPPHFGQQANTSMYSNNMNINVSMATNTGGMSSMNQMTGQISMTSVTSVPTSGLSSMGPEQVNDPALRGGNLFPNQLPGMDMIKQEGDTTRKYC
row,Structure (SMILES),IC50
1,CN1C(=O)C2(C(C#N)=C(N)N(c3cc(Cl)cc(Cl)c3)C3=C2C(=O)CC(C)(C)C3)c2ccccc21 (stereo not drawn),inactive
2,O=C(COC(=O)c1ccc[nH]c1=O)Nc1ccc(N2CCCCC2)cc1,> 35.9 µM (inactive)
3,CN1C(=O)C2(C(C#N)=C(N)N(c3cc(Cl)cc(Cl)c3)C3=C2C(=O)CCC3)c2ccccc21 (stereo not drawn),> 35.9 µM (inactive)
4,CCCNC(=O)c1nnsc1S(=O)(=O)c1ccc(Cl)cc1,inactive
5,CC(C)(C)c1ccc(-c2noc(CCC(=O)Nc3cccnc3)n2)cc1,> 35.9 µM (inactive)

# Other lines, results leading:
row,IC50,Structure (SMILES)
1,4.68 µM,OCCN1CCN(C(=S)c2ccc(-c3ccccc3)cc2)CC1
2,5.4 µM,O=C(Nc1ccccc1Oc1ccccc1)c1cc([N+](=O)[O-])ccc1Cl
3,inactive,Cc1ccc(OCC(=O)c2cc(C)n(-c3ccccc3)c2C)c([N+](=O)[O-])n1
